The test system of data set [1] is Aedes aegypti. The experiment in a line: Burning coil trial in ventilated 20 cubic metre test chamber with human subject: landing/bite inhibition, knockdown, 24 hour mortality. The data set is classed as in vivo. The following applies: for % KD (15 mins) / 24 hour % mortality (15 mins exposure): 15 minutes exposure; for 24 hour % mortality (15 mins exposure): dead after 24 hours; for % bite inhibition / % landing inhibition: assessed 10 to 15 minutes exposure. The protocol:
A combustible coil according to the present invention containing bifenthrin was compared with coils containing other pyrethroid active ingredients (d-allethrin, d-phenothrin, imiprothrin, permethrin, cypermethrin, bioresmethrin, deltamethrin) as indicated in Table 2. All coils contained active ingredients in an amount that rendered them similar in cost to the current leading d-allethrin coils. The range of actives covered both knockdown and residual pyrethroids. The trial was carried out against the Dengue mosquito (Aedes aegypti). The methodology employed is as follows:
The study was conducted in a ventilated test chamber (20 cubic metres) at a temperature of between 27° C. and 28.7° C. The relative humidity was ambient and ranged from 51% to 58%.
Mixed sex adult 6 to 10 day old Dengue mosquitoes (Aedes aegypti) were used in this study. There were 50 female mosquitoes released per replicate and a variable number of male mosquitoes. The mosquitoes were collected and immobilised. Male and female mosquitoes were added to a container until 50 female mosquitoes were obtained. Because only female mosquitoes bite human subjects, the number of males present in each trial was irrelevant. The mosquitoes were allowed to recover for at least one hour before being used for testing.
A positive air flow of 0.4 metres/second was generated into the chamber and air was passively vented from the chamber.
Coil treatments were placed on the floor in the test chamber, and were allowed to burn for 5 minutes before all mosquitoes were brought into the chamber and released. The coils continued to operate during the assessments and were stopped at the completion of the test period.
Starting from 10 minutes after the mosquitoes were released, an assessment was made by one human subject of the mosquito landings and bites over a 5 minute period. Whilst seated in the chamber, the subject recorded the total number of females that initiated a bite on the subject's legs, as well as the number of females that landed without initiating biting. Mosquitoes were permitted to probe the subject but not permitted to bite the subject, and were chased away prior to this occurring.
Immediately after the 5 minute assessment period, the number of knocked down mosquitoes was recorded. All the mosquitoes were collected and removed from the chamber. After 24 hours, the number of dead mosquitoes was recorded. The same human subject was used for all assessments.
The results shown in the Table 2 are the means of four trials.
Percentage landing inhibition refers to the number of mosquitoes which landed on the subject in the absence of any treatment (untreated control), minus the number of mosquitoes which landed on the subject in the presence of a coil treatment, divided by the number of mosquitoes which landed on the subject in the absence of any treatment, expressed as a percentage. Landing inhibition was assessed from 10 to 15 minutes exposure of the Aedes aegypti mosquitoes to each burning coil treatment.
Percentage bite inhibition refers to the number of mosquitoes which probed or attempted to bite the subject in the absence of any treatment (untreated control), minus the number of mosquitoes which attempted to bite the subject in the presence of a coil treatment, divided by the number of mosquitoes which attempted to bite the subject in the absence of any treatment, expressed as a percentage. It will be appreciated that, as mosquitoes must first land before attempting to bite, of necessity, percentage bite inhibition will always be lower than or equal to percentage landing inhibition. Bite inhibition was assessed from 10 to 15 minutes exposure of the Aedes aegypti mosquitoes to each burning coil treatment.
Knockdown refers to mosquitoes present on the floor of the chamber after the 15 minute trial, which were either dead, moribund, or incapacitated (i.e. unable to fly off the floor of the chamber). […]

For data set [2] the following is noted: cited from earlier work.
In data set [3] the test system is Culex quinquefasciatus. The data set can be described thus: Burning coil trial with mosquitoes confined in a small cage in the chamber, subject's arm inserted: landing/bite inhibition, knockdown, 24 hour mortality. It is filed as in vivo. As to conditions: caged Culex quinquefasciatus; for % KD (15 mins) / % bite inhibition / % landing inhibition: 15 minutes exposure. The protocol: The trial detailed in Example 2 was repeated against the much more difficult to kill Culex quinquefasciatus mosquitoes. The methodology used was similar to that employed for Aedes aegypti described above, with the following variations.
One hundred female and a variable number of male Cx. quinquefasciatus were confined in a small cage which was placed in the chamber 5 minutes after the coil treatment had been ignited. For this species of mosquito, the subject's arm was inserted into the cage for determinations of landing and biting rates. The reasons for these changes in methodology compared to those used for Ae. aegypti was because Cx. quinquefasciatus are much weaker biters. This meant that satisfactory biting rates could only be achieved by confining them to a small volume.
Percentage landing inhibition, percentage bite inhibition, percentage knockdown and percentage mortality are as defined above. […] As Cx. quinquefasciatus is a more robust mosquito species the lower level of mortality after 15 minutes exposure when compared with the Ae. aegypti mosquitoes was expected.

Data set [4] can be described thus: Comparison of physical properties of pyrethroids (The Pesticide Manual). The data set is classed as physicochemical. As to conditions: ratio of the cited vapour pressures. From the text:
The present inventors compared some physical properties of bifenthrin with those of other residual pyrethroids.

Where [5] appears, read: burning coil with 0.035% imiprothrin.
[6] abbreviates: burning coil with 0.02% bifenthrin.
Setting [7] is: burning coil with 0.05% bifenthrin.
Where [8] appears, read: burning coil with 0.10% bifenthrin.
[9] abbreviates: burning coil with 0.056% bioresmethrin.
Where [10] appears, read: burning coil with 0.3% cypermethrin.
[11] abbreviates: burning coil with 0.07% deltamethrin.
The mark [12] stands for this setting: burning coil with 0.705% permethrin.
[13] abbreviates: burning coil with 0.25% d-allethrin.
Setting [14] is: burning coil with 0.228% d-phenothrin.

Like-named read-outs stand apart in the source and are kept apart here.

In the case of `C#CCN1CC(=O)N(COC(=O)[C@@H]2C(C=C(C)C)C2(C)C)C1=O` (mixture of isomers) [Imiprothrin, imiprothrin], in data set [1] (setting [5]), the “% KD (15 mins)” value amounted to 1%, the “24 hour % mortality (15 mins exposure)” value was 7%, the “% bite inhibition” value was 34% and the “% landing inhibition” value was 34%. Further, the “Vapour Pressure” value in data set [2] (25° C.) is given as 0.0018 mPa.

Take `Cc1c(COC(=O)[C@H]2[C@@H](/C=C(\Cl)C(F)(F)F)C2(C)C)cccc1-c1ccccc1` (racemic) [Bifenthrin, 2-methylbiphenyl-3-ylmethyl (Z)-(1RS,3RS)-3-(2-chloro-3,3,3-trifluoroprop-1-enyl)-2,2-dimethylcyclopropanecarboxylate]: the “24 hour % mortality (15 mins exposure)” value in data set [3] (setting [6]) was determined as 9%; in data set [3] (setting [7]), 27%; in data set [3] (setting [8]), 39%; in data set [1] (setting [6]) it was 78%; in data set [1] (setting [7]) it was 94%; in data set [1] (setting [8]) it was 96%. In addition, the “% KD (15 mins)” value was 1% in data set [3] (setting [6]); 3% in data set [3] (setting [7]); 4% in data set [3] (setting [8]); 15% in data set [1] (setting [6]); 31% in data set [1] (setting [7]); 30% in data set [1] (setting [8]). Further, the “% bite inhibition” value in data set [3] (setting [6]) is 96%; in data set [3] (setting [7]) it was 95%; in data set [3] (setting [8]), 99%; in data set [1] (setting [6]) it was 95%; in data set [1] (setting [7]), 99%; in data set [1] (setting [8]), 100%. The “% landing inhibition” value was found to be 86% in data set [3] (setting [6]); 85% in data set [3] (setting [7]); 86% in data set [3] (setting [8]); 80% in data set [1] (setting [6]); 87% in data set [1] (setting [7]); 92% in data set [1] (setting [8]). Further, in data set [2] (25° C.), the “Vapour Pressure” value is 0.024 mPa.

For the molecule `CC(C)=C[C@@H]1[C@@H](C(=O)OCc2coc(Cc3ccccc3)c2)C1(C)C` [Bioresmethrin, bioresmethrin], the “vapour pressure relative to bifenthrin” value in data set [4] was 775 times. In addition, in data set [1] (setting [9]), the “% KD (15 mins)” value was found to be 41%, the “24 hour % mortality (15 mins exposure)” value came to 23%, the “% bite inhibition” value was determined as 99% and the “% landing inhibition” value was 96%. Besides, the “Vapour Pressure” value in data set [2] (25° C.) is listed as 18.6 mPa.

`CC1(C)C(C=C(Cl)Cl)C1C(=O)OC(C#N)c1cccc(Oc2ccccc2)c1` (stereo not drawn) [Cypermethrin, cypermethrin]: in data set [1] (setting [10]), the “% KD (15 mins)” value turned out to be 10%, the “24 hour % mortality (15 mins exposure)” value is 56%, the “% bite inhibition” value is 73% and the “% landing inhibition” value is 70%. The “Vapour Pressure” value in data set [2] (20° C.) was 0.0002 mPa.

Take `CC1(C)[C@H](C(=O)O[C@H](C#N)c2cccc(Oc3ccccc3)c2)[C@@H]1C=C(Br)Br` [Deltamethrin, deltamethrin]: in data set [1] (setting [11]), the “% KD (15 mins)” value stood at 0%, the “24 hour % mortality (15 mins exposure)” value is 12%, the “% bite inhibition” value is on record as 57% and the “% landing inhibition” value turned out to be 57%. Further, in data set [2] (25° C.), the “Vapour Pressure” value is on record as 0.0000124 mPa.

For `CC1(C)C(C=C(Cl)Cl)C1C(=O)OCc1cccc(Oc2ccccc2)c1` (stereo not drawn) [Permethrin, permethrin], in data set [1] (setting [12]), the “% KD (15 mins)” value is reported as 35%, the “24 hour % mortality (15 mins exposure)” value is given as 55%, the “% bite inhibition” value is 85% and the “% landing inhibition” value was 8%. The “Vapour Pressure” value in data set [2] (20° C.) was 0.0025 mPa.

On to `C=CCC1=C(C)C(OC(=O)C2C(C=C(C)C)C2(C)C)CC1=O` (stereo not drawn) [d-Allethrin, d-allethrin], for which, in data set [3] (setting [13]), the “24 hour % mortality (15 mins exposure)” value was determined as 2%, the “% KD (15 mins)” value came to 7%, the “% bite inhibition” value worked out at 94% and the “% landing inhibition” value was determined as 87%. In addition, in data set [1] (setting [13]), the “% KD (15 mins)” value is 35%, the “24 hour % mortality (15 mins exposure)” value came out at 7%, the “% bite inhibition” value was 100% and the “% landing inhibition” value turned out to be 98%. For the same molecule, the “24 hour % mortality (15 mins exposure)” value in data set [1] (burning coil with 0.25% d-allethrin, listed as d-allethrin) is listed as “no different from the untreated control”. The “Vapour Pressure” value in data set [2] (21° C.) is 0.16 mPa.

For `CC(C)=CC1C(C(=O)OCc2cccc(Oc3ccccc3)c2)C1(C)C` (stereo not drawn) [d-Phenothrin, d-phenothrin], in data set [1] (setting [14]), the “% KD (15 mins)” value came to 39%, the “24 hour % mortality (15 mins exposure)” value worked out at 24%, the “% bite inhibition” value was 100% and the “% landing inhibition” value is 98%. Also, in data set [2] (21.4° C.), the “Vapour Pressure” value was 0.019 mPa.

(Values after patent US20070275025A1, “Combustible Mosquito Coil or Stick” (RECKITT BENCKISER (AUSTRALIA) PTY LIMITED, priority 2003, published 2007).)
